B1: GCSF-dithioproplonamido[12-aminododecylamido]-eVB12 (conjugate, UniProt P09919 31-207, looked up)
Granulocyte …: TPLGPASSLPQSFLLKCLEQVRKIQGDGAALQEKLVSECATYKLCHPEELVLLGHSLGIPWAPLSSCPSQALQLAGCLSQLHSGLFLYQGLLQALEGISPELGPTLDTLQLDVADFATTIWQQMEELGMAPALQPTQGAMPAFASAFQRRAGGVLVASHLQSFLEVSYRVLRHLAQP
modifications: disulphide-linked aminododecyl vitamin B12 conjugate
notes: GCSF linked by disulphide at Cys-17 to DTP-aminododecyl-eVB12 (section 1.7)
B2: GCSF-acyl[adipyldihydrazidyl]-eVB12 (conjugate, UniProt P09919 31-207, looked up)
Granulocyte …: B1 Granulocyte …
modifications: adipyl-dihydrazide vitamin B12 conjugate
notes: EDAC-mediated conjugate of adipylhydrazido-eVB12 with GCSF (section 1.12)
B3: GCSF-diothloproplonamido12-aminododecyl-suberyl-hexylamido-eVB12 (conjugate, UniProt P09919 31-207, looked up)
Granulocyte …: B1 Granulocyte …
modifications: disulphide-linked dodecylsuberylhexyl vitamin B12 conjugate
notes: GCSF linked by disulphide to DTP-dodecylsuberylhexyl-eVB12 (section 1.9)
B4: GCSF-acylhydrazidyl-eVB12 (conjugate, UniProt P09919 31-207, looked up)
Granulocyte …: B1 Granulocyte …
modifications: hydrazide vitamin B12 conjugate
notes: EDAC-mediated conjugate of hydrazido-eVB12 with carboxyl groups of GCSF (section 1.11)

This note sets out measurements from patent US5548064A, “Vitamin B12 conjugates with EPO, analogues thereof and pharmaceutical compositions” (Biotech Australia Pty Limited, priority 1993, dated 1996).

In the first test the target is intrinsic factor (IF) (Homo sapiens, UniProt P27352). The experiment in a line: Relative intrinsic factor (IF) affinity of eVB12 analogues and complexes. The test is classed as binding. As to conditions: % of native eVB12. From the text: IF Affinity is expressed as a percentage of the affinity of the eVB12 derivative relative to native, unmodified VB12.
Chain of intrinsic factor (IF) (P27352 19-417, species assumed): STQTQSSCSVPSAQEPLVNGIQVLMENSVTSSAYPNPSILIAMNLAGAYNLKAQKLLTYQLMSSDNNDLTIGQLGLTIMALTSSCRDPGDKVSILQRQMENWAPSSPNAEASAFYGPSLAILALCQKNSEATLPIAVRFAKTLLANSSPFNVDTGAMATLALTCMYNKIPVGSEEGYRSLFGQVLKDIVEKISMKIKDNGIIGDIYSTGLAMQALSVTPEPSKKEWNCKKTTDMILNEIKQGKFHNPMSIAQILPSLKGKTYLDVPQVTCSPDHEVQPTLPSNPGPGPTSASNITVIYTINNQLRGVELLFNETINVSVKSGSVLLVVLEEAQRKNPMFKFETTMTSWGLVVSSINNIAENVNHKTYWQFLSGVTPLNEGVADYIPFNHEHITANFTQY
For the molecule B1, the IF Affinity is on record as 2-3%.

Still in this test, the particulars now being: percentage of the affinity of the eVB12 derivative relative to native, unmodified VB12.
Regarding 2-aminoethylamido-eVB12, the “IF Affinity” value is reported as 48%.
As to 6-aminohexylamido-eVB12, the “IF Affinity” value came to 91%.
For “12-aminododecyl-suberyl-hexylamido-eVB12”, the “IF Affinity” value turned out to be 82%.
The same measure, in the same setting: in the case of 12-aminododecylamido-eVB12 it was 74%; in that of EPO-acyl[adipyldlhydrazidyl]-eVB12, 11%.
Turning to EPO-acylhydrazidyl-eVB12, the “IF Affinity” value was 6%.
Consider adipyldihydrazidyl-eVB12, for which the “IF Affinity” value amounted to 44%.
Still for that read-out and setting: in the case of “dithiopropionamido[6-aminohexylamido]-eVB12” it was 7%; in that of “dithioproplonamido[6-aminohexylamido]-eVB12”, 11%; in that of “dithlopropionamido[2-aminoethylamido]-eVB12”, 6%.
On to eVB12 carboxylate, for which the “IF Affinity” value was 35%.
Still for that read-out and setting: in the case of hydrazidyl-eVB12 it was 100%; in that of B1, 3%.
Still for that read-out and setting: in the case of B2 it was 7%; in that of B3, 28%; in that of B4, 10%.
